Assays:
[1] = target: Human KDR (residues 790-1356) (Homo sapiens (Human), UniProt P35968); assay: Human KDR kinase assay, HTRF KinEase (Example B-2); type: biochemical; settings: protocol of Example B-2 (other compounds)
Summary of the method: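 Human KDR residues 790-1356 (0.1 ng/well) in buffer with 5 mM MgCl2, 1 mM MnCl2, 1 mM DTT, biotinylated peptide substrate, ATP at Km (4.0 μM), 3% DMSO, 10 compound concentrations; 40 min, room temperature. EDTA stop, streptavidin-XL665/Eu-TK antibody HTRF read 665/620 nm; 4-parameter IC50.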

[2] = target: Met (phospho-Met, HGF-stimulated PC-3 prostate cancer cells) (Homo sapiens (Human), UniProt P08581); assay: Met autophosphorylation ELISA in PC-3 cells (Example F); type: cell-based; settings: cellular activity; Met autophosphorylation ELISA in PC-3 cells; read-out: c-Met IC50
Summary of the method: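 PC-3 cells, serum-starved 3 h, were treated with compounds (8-point dose curve, 0.3% DMSO final) for 1 h, then stimulated with 100 ng/mL recombinant human HGF for 10 min. Lysate phospho-Met (panTyr) was quantified by sandwich ELISA; IC50 from 4-parameter logistic fit.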

[3] = target: Human MER (residues 528-999) (Homo sapiens (Human), UniProt Q12866); assay: Human Mer kinase assay, HTRF KinEase (Example C-2); type: biochemical; settings: protocol of Example C-2 (other compounds)
Summary of the method: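 Recombinant MER 528-999 (1 ng/well) in buffer with 5 mM MgCl2 and 1 mM DTT was reacted with biotinylated peptide and ATP at Km (40 μM) for 60 min at room temperature. EDTA stop with SA-XL665 and Eu3+ TK antibody, then 665/620 nm HTRF read; IC50 from 4-parameter fit.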

[4] = target: Mer (phospho-Mer, MERTK-transfected 293A cells) (Homo sapiens (Human), UniProt Q12866); assay: Mer autophosphorylation ELISA in transient transfected 293A cells (Example H); type: cell-based; settings: cellular activity; Mer autophosphorylation ELISA in transient transfected 293A cells
Summary of the method: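 293A cells transiently transfected with human MERTK were treated 1 h in serum-free medium with an 8-point compound dilution (0.3% DMSO final). Lysates were assayed by phospho-Mer sandwich ELISA against a phospho-Mer standard; IC50 came from a 4-parameter logistic fit, normalised to DMSO (100%) and reference-inhibitor (0%) controls.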

Sequence of Mer (phospho-Mer, MERTK-transfected 293A cells) (Q12866 21-999): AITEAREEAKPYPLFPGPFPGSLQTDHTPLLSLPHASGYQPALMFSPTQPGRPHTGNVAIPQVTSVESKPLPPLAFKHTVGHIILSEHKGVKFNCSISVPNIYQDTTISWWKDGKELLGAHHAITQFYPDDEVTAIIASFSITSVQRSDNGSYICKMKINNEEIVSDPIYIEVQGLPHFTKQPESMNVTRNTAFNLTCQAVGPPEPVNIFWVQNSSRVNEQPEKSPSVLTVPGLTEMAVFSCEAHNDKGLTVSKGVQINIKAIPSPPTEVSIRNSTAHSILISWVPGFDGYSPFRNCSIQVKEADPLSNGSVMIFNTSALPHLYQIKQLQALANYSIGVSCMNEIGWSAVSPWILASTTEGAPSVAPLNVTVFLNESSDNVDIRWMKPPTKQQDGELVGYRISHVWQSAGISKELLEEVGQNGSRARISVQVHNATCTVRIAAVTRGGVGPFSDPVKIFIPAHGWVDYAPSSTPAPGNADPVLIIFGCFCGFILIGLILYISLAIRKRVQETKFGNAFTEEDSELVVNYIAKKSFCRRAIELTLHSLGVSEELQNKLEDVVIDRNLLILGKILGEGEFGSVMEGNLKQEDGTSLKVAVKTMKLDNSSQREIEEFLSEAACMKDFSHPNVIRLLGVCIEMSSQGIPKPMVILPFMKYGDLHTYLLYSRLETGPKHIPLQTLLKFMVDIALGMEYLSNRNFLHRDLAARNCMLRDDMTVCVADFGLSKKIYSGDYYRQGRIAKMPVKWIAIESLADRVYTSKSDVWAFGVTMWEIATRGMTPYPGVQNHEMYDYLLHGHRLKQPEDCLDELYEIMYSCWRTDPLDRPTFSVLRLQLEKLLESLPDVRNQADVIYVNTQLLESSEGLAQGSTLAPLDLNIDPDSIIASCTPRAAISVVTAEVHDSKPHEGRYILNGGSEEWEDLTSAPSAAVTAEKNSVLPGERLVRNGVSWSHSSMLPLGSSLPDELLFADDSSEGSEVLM
Sequence of Human MER (residues 528-999) (Q12866 528-999): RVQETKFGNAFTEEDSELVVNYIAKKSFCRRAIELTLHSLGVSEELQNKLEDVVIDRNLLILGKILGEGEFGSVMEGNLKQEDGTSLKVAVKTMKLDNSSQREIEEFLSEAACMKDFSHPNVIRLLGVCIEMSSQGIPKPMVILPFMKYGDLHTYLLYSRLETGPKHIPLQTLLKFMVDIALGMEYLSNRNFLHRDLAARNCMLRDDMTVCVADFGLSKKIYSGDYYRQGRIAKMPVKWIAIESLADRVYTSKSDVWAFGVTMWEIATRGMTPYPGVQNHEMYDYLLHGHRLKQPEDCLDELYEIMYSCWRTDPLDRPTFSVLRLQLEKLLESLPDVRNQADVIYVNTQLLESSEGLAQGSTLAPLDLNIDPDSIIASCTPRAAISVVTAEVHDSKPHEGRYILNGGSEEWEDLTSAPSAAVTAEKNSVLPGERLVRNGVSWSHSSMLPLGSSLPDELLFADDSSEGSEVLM
Sequence of Human KDR (residues 790-1356) (P35968 790-1356): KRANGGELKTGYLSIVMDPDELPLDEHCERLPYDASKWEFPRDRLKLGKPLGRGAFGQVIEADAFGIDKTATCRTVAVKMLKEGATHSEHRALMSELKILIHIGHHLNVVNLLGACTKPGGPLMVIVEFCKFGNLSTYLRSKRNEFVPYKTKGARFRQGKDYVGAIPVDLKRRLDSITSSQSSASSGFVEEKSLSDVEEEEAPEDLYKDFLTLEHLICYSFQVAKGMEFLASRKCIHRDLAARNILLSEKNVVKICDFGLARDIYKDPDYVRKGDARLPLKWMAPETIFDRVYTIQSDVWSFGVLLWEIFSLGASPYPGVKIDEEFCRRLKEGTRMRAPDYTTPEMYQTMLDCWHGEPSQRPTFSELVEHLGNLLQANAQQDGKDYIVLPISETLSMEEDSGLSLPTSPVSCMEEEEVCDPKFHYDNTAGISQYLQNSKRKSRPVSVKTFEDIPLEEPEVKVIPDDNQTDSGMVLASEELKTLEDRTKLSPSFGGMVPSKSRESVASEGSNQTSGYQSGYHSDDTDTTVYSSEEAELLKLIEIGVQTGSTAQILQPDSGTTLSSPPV
Sequence of Met (phospho-Met, HGF-stimulated PC-3 prostate cancer cells) (P08581 25-1390): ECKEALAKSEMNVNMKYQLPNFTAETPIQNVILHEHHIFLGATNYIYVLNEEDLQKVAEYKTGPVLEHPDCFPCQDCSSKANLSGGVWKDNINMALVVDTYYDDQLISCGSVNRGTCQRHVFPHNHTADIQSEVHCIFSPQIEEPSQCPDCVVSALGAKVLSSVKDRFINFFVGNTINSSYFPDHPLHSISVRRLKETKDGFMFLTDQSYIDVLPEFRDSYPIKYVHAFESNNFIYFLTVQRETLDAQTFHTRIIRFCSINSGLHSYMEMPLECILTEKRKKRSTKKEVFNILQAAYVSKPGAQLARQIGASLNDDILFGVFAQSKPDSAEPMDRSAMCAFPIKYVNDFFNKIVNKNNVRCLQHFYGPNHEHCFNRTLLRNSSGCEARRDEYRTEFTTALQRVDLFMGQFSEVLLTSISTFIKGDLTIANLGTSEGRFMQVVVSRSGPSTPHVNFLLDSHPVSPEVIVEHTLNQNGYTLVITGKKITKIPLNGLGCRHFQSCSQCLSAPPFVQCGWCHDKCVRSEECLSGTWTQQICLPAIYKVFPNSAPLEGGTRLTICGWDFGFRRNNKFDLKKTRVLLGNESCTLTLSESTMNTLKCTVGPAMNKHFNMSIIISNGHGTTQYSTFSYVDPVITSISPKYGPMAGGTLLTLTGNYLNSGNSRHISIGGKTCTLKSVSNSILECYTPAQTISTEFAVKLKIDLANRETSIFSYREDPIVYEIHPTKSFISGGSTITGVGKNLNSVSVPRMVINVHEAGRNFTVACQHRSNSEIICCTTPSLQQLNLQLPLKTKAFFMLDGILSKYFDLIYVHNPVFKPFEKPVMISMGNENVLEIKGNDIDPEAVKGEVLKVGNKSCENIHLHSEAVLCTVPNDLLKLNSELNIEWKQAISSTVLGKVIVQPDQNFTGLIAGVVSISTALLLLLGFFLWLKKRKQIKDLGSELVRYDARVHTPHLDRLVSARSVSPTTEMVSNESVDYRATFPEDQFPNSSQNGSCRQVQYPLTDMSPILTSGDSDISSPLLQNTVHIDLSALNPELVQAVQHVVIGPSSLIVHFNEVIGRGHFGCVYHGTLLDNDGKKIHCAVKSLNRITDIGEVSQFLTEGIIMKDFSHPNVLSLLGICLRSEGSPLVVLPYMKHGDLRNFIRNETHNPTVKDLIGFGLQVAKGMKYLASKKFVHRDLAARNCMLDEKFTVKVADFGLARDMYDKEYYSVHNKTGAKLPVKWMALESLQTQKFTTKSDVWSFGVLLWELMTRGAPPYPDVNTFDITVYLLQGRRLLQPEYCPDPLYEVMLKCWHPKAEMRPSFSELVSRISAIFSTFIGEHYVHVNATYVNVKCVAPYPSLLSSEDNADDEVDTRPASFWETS

IC50 [1] [nM] | IC50 [2] [nM] | IC50 [3] [nM] | IC50 [4] [nM] | Compound
< 100 | < 100 | < 100 | < 100 | COc1cc2nccc(Oc3ccc(NC(=O)c4c(C)ccn(-c5ccc(F)cc5)c4=O)cc3F)c2nc1OC [Compound 286, N-[4-[(6,7-Dimethoxy-1,5-naphthyridin-4-yl)oxy]-3-fluorophenyl]-1-(4-fluorophenyl)-4-methyl-2-oxopyridine-3-carboxamide]
< 100 | < 100 | < 100 | < 100 | COc1cc2nccc(Oc3ccc(NC(=O)c4cc(C)c(C)n(-c5ccc(F)cc5)c4=O)cc3F)c2nc1OC [Compound 370, N-[4-[(6,7-dimethoxy-1,5-naphthyridin-4-yl)oxy]-3-fluorophenyl]-1-(4-fluorophenyl)-5,6-dimethyl-2-oxopyridine-3-carboxamide]
> 300 | < 100 | < 100 | < 100 | COc1cnc2c(Oc3ccc(NC(=O)c4ncc(C)n(-c5ccc(F)cc5)c4=O)cc3)ccnc2c1 [Compound 263, 4-(4-Fluorophenyl)-N-[4-[(7-methoxy-1,5-naphthyridin-4-yl)oxy]phenyl]-5-methyl-3-oxopyrazine-2-carboxamide]

Source: patent publication US12371428B2 (Exelixis, Inc., priority 2019, dated 2025)
